ChEMBL document CHEMBL4622970, “Design, Synthesis, and Evaluation of New Quinazolinone Derivatives that Inhibit Bloom Syndrome Protein (BLM) Helicase, Trigger DNA Damage at the Telomere Region, and Synergize with PARP Inhibitors” (J Med Chem, 2020)
Active and inactive are the calls of the source. The rule behind the calls is not given here.

Key:
[1] = target: T1, RecQ-like DNA helicase BLM (Homo sapiens, UniProt P54132); assay: Inhibition of BLM in human HCT116 cells assessed as induction of telomere end loss at 4 uM by fluorescent in situ hybridization; type: cell-based; conditions: HCT-116
[2] = target: T1, RecQ-like DNA helicase BLM; assay: Inhibition of BLM in human HCT116 cells assessed as potentiation of olaparib-induced cytotoxicity at 1 to 2 uM measured after 48 hrs by MTT assay relative to olaparib alone; type: cell-based; conditions: HCT-116
[3] = target: RecQ-like DNA helicase BLM (Homo sapiens, UniProt P54132, I1168A); assay: Binding affinity to His-tagged BLM I1168A mutant (unknown origin) expressed in Escherichia coli BL21 (DE3) cells by isothermal calorimetric titration assay
[4] = target: T1, RecQ-like DNA helicase BLM; assay: Inhibition of BLM in human HCT116 cells assessed as upregulation of ATR phosphorylation up to 4 uM by Western blot analysis; type: cell-based; conditions: HCT-116
[5] = system: HCT-116; assay: Induction of apoptosis in human HCT116 cells assessed as apoptotic cell population at 4 uM measured after 48 hrs by Annexin V-FITC/propidium iodide staining based flow cytometry (reference value: 17.4%); type: functional
[6] = system: HCT-116; assay: Cytotoxicity against human HCT116 cells by MTT assay; type: functional, cell-based
[7] = target: RecQ-like DNA helicase BLM (Homo sapiens, UniProt P54132, H996A); assay: Binding affinity to His-tagged BLM H996A mutant (unknown origin) expressed in Escherichia coli BL21 (DE3) cells by isothermal calorimetric titration assay
[8] = target: T1, RecQ-like DNA helicase BLM; assay: Inhibition of BLM in human HCT116 cells assessed as potentiation of cisplatin-induced cytotoxicity by measuring combination index at 1 to 2 uM measured after 48 hrs by MTT assay; type: cell-based; conditions: HCT-116
[9] = target: T1, RecQ-like DNA helicase BLM; assay: Inhibition of BLM in human HCT116 cells assessed as increase in gamma-H2AX-TRF2 foci colocalization mediated telomere dysfunction-induced foci formation measured after 24 hrs by DAPI staining based immunofluorescence assay; type: cell-based; conditions: HCT-116
[10] = target: T1, RecQ-like DNA helicase BLM; assay: Inhibition of BLM in human HCT116 cells assessed as increase in gamma-H2AX-TRF2 foci colocalization mediated telomere dysfunction-induced foci formation at 1 to 4 uM measured after 24 hrs by DAPI staining based immunofluorescence assay relative to total gamma-H2AX foci; type: cell-based; conditions: HCT-116
[11] = target: T1, RecQ-like DNA helicase BLM; assay: Binding affinity to BLM in human HCT116 cells cotransfected with DSB model and I-SceI plasmid assessed as reduction in recruitment of protein to DSB site in DNA at 2 uM measured after 24 hrs by chromatin immunoprecipitation assay; type: cell-based; conditions: HCT-116
[12] = target: T1, RecQ-like DNA helicase BLM; assay: Inhibition of BLM in human HCT116 cells assessed as increase in gamma-H2AX-TRF2 foci colocalization mediated telomere dysfunction-induced foci formation at 1 uM measured after 24 hrs in presence of […] inhibitor niraparib by DAPI staining based immunofluorescence assay; type: cell-based; conditions: HCT-116
[13] = system: HCT-116; assay: Antiproliferative activity against wild-type human HCT116 cells assessed as inhibition of cell proliferation by real-time cellular analysis; type: functional, cell-based
[14] = target: T1, RecQ-like DNA helicase BLM; assay: Inhibition of BLM in human HCT116 cells assessed as upregulation of CHK1 phosphorylation by Western blot analysis; type: cell-based; conditions: HCT-116
[15] = target: T1, RecQ-like DNA helicase BLM; assay: Inhibition of BLM in human HCT116 cells assessed as potentiation of olaparib-induced cytotoxicity by measuring combination index at 1 to 2 uM measured after 48 hrs by MTT assay; type: cell-based; conditions: HCT-116
[16] = system: HCT-116; assay: Induction of apoptosis in human HCT116 cells assessed as upregulation of cleaved caspase-3 expression up to 4 uM measured after 48 hrs by Western blot analysis; type: functional, cell-based
[17] = target: T1, RecQ-like DNA helicase BLM; assay: Inhibition of BLM in human HCT116 cells assessed as upregulation of ATM phosphorylation up to 4 uM by Western blot analysis; type: cell-based; conditions: HCT-116
[18] = target: T1, RecQ-like DNA helicase BLM; assay: Inhibition of BLM in human HCT116 cells assessed as potentiation of niraparib-induced cytotoxicity at 1 to 2 uM measured after 48 hrs by MTT assay relative to niraparib alone; type: cell-based; conditions: HCT-116
[19] = target: T1, RecQ-like DNA helicase BLM; assay: Inhibition of His-tagged BLM (642 to 1296 residues) (unknown origin) expressed in Escherichia coli BL21 (DE3) cells assessed as reduction in DNA unwinding activity using 5'-biotin-labeled forked DNA as substrate preincubated for 1 hr followed by substrate addition and measured after 1 hr by electrophoretic mobility shift assay
[20] = target: T1, RecQ-like DNA helicase BLM; assay: Inhibition of BLM in human HCT116 cells assessed as increase in gamma-H2AX level at 2 uM measured after 24 hrs by Western blot analysis; type: cell-based; conditions: HCT-116
[21] = target: T1, RecQ-like DNA helicase BLM; assay: Inhibition of BLM in human HCT116 cells assessed as upregulation of CHK2 phosphorylation by Western blot analysis; type: cell-based; conditions: HCT-116
[22] = system: HCT-116; assay: Induction of apoptosis in human HCT116 cells measured after 48 hrs by Annexin V-FITC/propidium iodide staining based flow cytometry; type: functional, cell-based
[23] = target: T1, RecQ-like DNA helicase BLM; assay: Binding affinity to BLM in human HCT116 cells cotransfected with DSB model and I-SceI plasmid assessed as reduction in recruitment of protein to DNA region distant from DSB site at 2 uM measured after 24 hrs by chromatin immunoprecipitation assay; type: cell-based; conditions: HCT-116
[24] = system: HCT-116; assay: Antiproliferative activity against human HCT116 cells harboring siBLM assessed as inhibition of cell proliferation at 1 to 2 uM by real-time cellular analysis; type: functional, cell-based
[25] = target: T1, RecQ-like DNA helicase BLM; assay: Inhibition of BLM in human HCT116 cells assessed as increase in gamma-H2AX foci at 1 to 4 uM measured after 24 hrs by DAPI staining based immunofluorescence assay; type: cell-based; conditions: HCT-116
[26] = target: T1, RecQ-like DNA helicase BLM; assay: Inhibition of BLM in human HCT116 cells assessed as potentiation of BIBR1532-induced cytotoxicity by measuring combination index at 1 to 2 uM measured after 48 hrs by MTT assay; type: cell-based; conditions: HCT-116
[27] = target: T1, RecQ-like DNA helicase BLM; assay: Inhibition of BLM in human HCT116 cells assessed as potentiation of niraparib-induced cytotoxicity by measuring combination index at 1 to 2 uM measured after 48 hrs by MTT assay; type: cell-based; conditions: HCT-116
[28] = system: HCT-116; assay: Induction of apoptosis in human HCT116 cells assessed as upregulation of cleaved PARP expression up to 4 uM measured after 48 hrs by Western blot analysis; type: functional, cell-based
[29] = target: T1, RecQ-like DNA helicase BLM; assay: Binding affinity to His-tagged BLM (642 to 1296 residues) (unknown origin) expressed in Escherichia coli BL21 (DE3) cells assessed as inhibition of protein interaction with 5'-biotin-labeled forked DNA measured after 1 hr by ELISA
[30] = target: T1, RecQ-like DNA helicase BLM; assay: Inhibition of BLM in human HCT116 cells assessed as down regulation of HRR level at 0.5 uM measured after 24 hrs by luciferase reporter gene assay; type: cell-based; conditions: HCT-116
[31] = target: T1, RecQ-like DNA helicase BLM; assay: Binding affinity to wild-type His-tagged BLM (642 to 1296 residues) (unknown origin) expressed in Escherichia coli BL21 (DE3) cells by isothermal calorimetric titration assay
[32] = system: HCT-116; assay: Induction of apoptosis in human HCT116 cells assessed as upregulation of cleaved caspase-7 expression up to 4 uM measured after 48 hrs by Western blot analysis; type: functional, cell-based

T1 sequence (P54132 whole entry): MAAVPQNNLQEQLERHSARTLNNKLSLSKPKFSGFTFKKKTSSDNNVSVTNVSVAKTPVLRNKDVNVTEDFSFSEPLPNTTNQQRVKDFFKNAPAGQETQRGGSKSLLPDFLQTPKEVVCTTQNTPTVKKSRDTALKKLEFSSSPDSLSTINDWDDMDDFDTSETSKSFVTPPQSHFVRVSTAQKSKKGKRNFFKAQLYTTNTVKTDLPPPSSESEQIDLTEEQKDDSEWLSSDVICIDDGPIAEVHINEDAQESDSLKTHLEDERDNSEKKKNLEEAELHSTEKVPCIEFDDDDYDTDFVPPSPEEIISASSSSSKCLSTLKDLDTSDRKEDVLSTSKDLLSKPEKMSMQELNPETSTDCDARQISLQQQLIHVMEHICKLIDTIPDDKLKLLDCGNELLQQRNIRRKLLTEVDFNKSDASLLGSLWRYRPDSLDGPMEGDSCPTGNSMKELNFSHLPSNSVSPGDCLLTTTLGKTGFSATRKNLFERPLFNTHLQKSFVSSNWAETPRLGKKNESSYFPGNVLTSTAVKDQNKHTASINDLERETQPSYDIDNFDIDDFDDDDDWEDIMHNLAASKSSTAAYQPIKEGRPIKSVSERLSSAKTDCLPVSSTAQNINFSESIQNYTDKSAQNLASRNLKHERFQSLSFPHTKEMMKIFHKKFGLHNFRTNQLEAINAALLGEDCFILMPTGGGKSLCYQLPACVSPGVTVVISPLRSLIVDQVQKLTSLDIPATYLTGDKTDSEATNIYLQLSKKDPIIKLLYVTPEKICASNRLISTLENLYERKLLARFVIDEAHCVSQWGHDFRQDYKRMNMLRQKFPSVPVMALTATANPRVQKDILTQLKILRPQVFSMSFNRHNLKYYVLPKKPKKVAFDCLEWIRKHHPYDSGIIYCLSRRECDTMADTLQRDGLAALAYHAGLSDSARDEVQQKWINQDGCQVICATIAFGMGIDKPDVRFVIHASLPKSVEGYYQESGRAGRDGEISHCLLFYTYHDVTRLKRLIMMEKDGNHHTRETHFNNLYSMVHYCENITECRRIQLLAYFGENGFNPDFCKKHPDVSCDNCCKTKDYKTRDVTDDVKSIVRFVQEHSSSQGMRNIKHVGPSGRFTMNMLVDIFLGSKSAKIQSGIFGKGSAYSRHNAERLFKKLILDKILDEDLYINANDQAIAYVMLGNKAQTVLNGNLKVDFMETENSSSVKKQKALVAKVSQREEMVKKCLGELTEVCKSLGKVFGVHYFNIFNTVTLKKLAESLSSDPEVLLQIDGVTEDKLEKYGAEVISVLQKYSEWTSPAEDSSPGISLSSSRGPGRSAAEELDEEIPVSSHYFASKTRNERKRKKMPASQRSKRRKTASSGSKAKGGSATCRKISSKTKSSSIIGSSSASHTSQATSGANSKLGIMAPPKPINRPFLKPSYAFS
Sequence of RecQ-like DNA helicase BLM (Homo sapiens, UniProt P54132, H996A) (P54132 whole entry H996A): as the sequence (P54132 whole entry) above, with H996A counted along it
Sequence of RecQ-like DNA helicase BLM (Homo sapiens, UniProt P54132, I1168A) (P54132 whole entry I1168A): as the sequence (P54132 whole entry) above, with I1168A counted along it

`CCN(CC)CCCNc1cc2nc(/C=C/c3ccc(C(C)C)cc3)n(CCCl)c(=O)c2cc1F` was tested, and the inhibition [1] was “Active”, the fold change (FC) [2] was 2 to 4 and the Kd [3] was 6540 nM. The inhibition [4] was “Active”, the Activity [5] was 76% and the Activity [6] was “Active”. For the same molecule, the Kd [7] was 1400 nM, the CI [8] was 0.6 to 0.8 and the inhibition [9] was “Dose-dependent effect”. The inhibition [10] was over 70%, the Activity [11] was “Active” and the inhibition [12] was “Active”. The inhibition [13] was “Dose-dependent effect”, the inhibition [14] was “Dose-dependent effect” and the CI [15] was 0.4 to 0.8. The Activity [16] was “Active”, the inhibition [17] was “Active” and the fold change (FC) [18] was 2 to 4. For the same molecule, the IC50 [19] was 800 nM, the inhibition [20] was “Active” and the inhibition [21] was “Dose-dependent effect”. The Activity [22] was “Dose-dependent effect”, the Activity [23] was “Active” and the inhibition [24] was “inactive”. The inhibition [25] was “Active”, the CI [26] was 0.5 to 0.8 and the CI [27] was 0.4 to 0.8. For the same molecule, the Activity [28] was “Active”, the IC50 [29] was 8700 nM and the inhibition [30] was “Active”. For the same molecule, the Kd [31] was 760 nM and the Activity [32] was “Active”.
